Results published in patent US20240246964A1 (Arbutus Biopharma Corporation, priority 2021, published 2024).

What was measured:
[1] = biological target: PD-L1 His protein / PD-1 Fc protein (Homo sapiens (Human), UniProt Q9NZQ7); assay: HTRF Assay (PD-1/PD-L1 interaction); assay type: binding; conditions: PD-L1 His 6 nM, PD-1 Fc 6 nM
human PD-L1 = human PD-L1 (Homo sapiens (Human), UniProt Q9NZQ7); assay: T cell activation luciferase reporter cell culture system (T Cell Activation Assay); assay type: cell-based; conditions: luciferase reporter assay; PD-L1 aAPC/CHO-K1 cells with PD-1 effector Jurkat T cells
Chain of human PD-L1 (Q9NZQ7 19-290): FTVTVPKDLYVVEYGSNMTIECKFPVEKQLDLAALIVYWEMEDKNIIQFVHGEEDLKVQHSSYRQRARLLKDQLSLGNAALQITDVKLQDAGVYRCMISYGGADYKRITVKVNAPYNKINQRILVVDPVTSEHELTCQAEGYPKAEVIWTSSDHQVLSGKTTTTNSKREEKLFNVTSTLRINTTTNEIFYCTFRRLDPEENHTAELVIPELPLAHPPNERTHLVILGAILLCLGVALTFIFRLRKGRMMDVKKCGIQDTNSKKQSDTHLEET

Chain of PD-L1 His protein / PD-1 Fc protein (Q9NZQ7 19-238): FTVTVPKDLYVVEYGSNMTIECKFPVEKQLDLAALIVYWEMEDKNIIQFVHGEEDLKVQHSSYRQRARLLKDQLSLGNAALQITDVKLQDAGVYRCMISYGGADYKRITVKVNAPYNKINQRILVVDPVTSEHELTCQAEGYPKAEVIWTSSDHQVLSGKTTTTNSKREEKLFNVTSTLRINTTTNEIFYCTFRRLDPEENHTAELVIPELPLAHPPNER

Row | Structure (SMILES) | IC50 [1] [nM] | EC50 (human PD-L1) [nM]
1 | COc1cc(-c2nccc(-c3ccnc(-c4cnc5c(CNC[C@@H]6CCC(=O)N6)cn(C)c5c4)c3Cl)c2Cl)ccc1CNC[C@@H]1CCC(=O)N1 [Compound 16, (S)-5-(((4-(3,3′-dichloro-2′-(1-methyl-3-(((((S)-5-oxopyrrolidin-2-yl)methyl)amino)methyl)-1H-pyrrolo[3,2-b]pyridin-6-yl)-[4,4′-bipyridin]-2-yl)-2-methoxybenzyl)amino)methyl)pyrrolidin-2-one] | 1 | 355
2 | COc1cc(-c2cccc(-c3ccnc(-c4cnc(CNC5CCOCC5)c(OC)c4)c3Cl)c2Cl)cnc1CNC1CCOCC1 [Compound 570, N-((5-(2-Chloro-3-(3-chloro-5′-methoxy-6′-(((tetrahydro-2H-pyran-4-yl)amino)methyl)-[2,3′-bipyridin]-4-yl)phenyl)-3-methoxypyridin-2-yl)methyl)tetrahydro-2H-pyran-4-amine] | 18.5 | ≥ 10000
3 | COc1cc(-c2nccc(-c3cccc(-c4ccc(CNC5CCOCC5)c(OC)n4)c3Cl)c2C)ccc1CNC1CCOCC1 [Example 462, N-((6-(2-chloro-3-(2-(3-methoxy-4-(((tetrahydro-2H-pyran-4-yl)amino)methyl)phenyl)-3-methylpyridin-4-yl)phenyl)-2-methoxypyridin-3-yl)methyl)tetrahydro-2H-pyran-4-amine] | 6.78 | 178
4 | COc1nc(-c2cccc(-c3ccnc(-c4ccc5c(CN(C)CCO)cn(C)c5c4)c3Cl)c2Cl)ccc1CNC[C@@H]1CCC(=O)N1 [Compound 39, (S)-5-((((6-(2-chloro-3-(3-chloro-2-(3-(((2-hydroxyethyl)(methyl)amino)methyl)-1-methyl-1H-indol-6-yl)pyridin-4-yl)phenyl)-2-methoxypyridin-3-yl)methyl)amino)methyl)pyrrolidin-2-one] | 1 | 61.8
5 | COc1cc(-c2nccc(-c3cccc(-c4ccc(CN[C@H]5CC[C@H](OC)CC5)c(OC)n4)c3Cl)c2Cl)ccc1CN[C@H]1CC[C@H](OC)CC1 [Example 450, (1r,4r)-N-((6-(2-Chloro-3-(3-chloro-2-(3-methoxy-4-((((1r,4r)-4-methoxycyclohexyl)amino)methyl)phenyl)pyridin-4-yl)phenyl)-2-methoxypyridin-3-yl)methyl)-4-methoxycyclohexan-1-amine] | 2.36 | 54.7
6 | COc1cc(-c2nccc(-c3cccc(-c4ccc(CNC[C@@H]5CCC(=O)N5)c(OC)n4)c3Cl)c2Cl)ccc1CNC1(C(=O)OC(C)C)CC1 [Compound 135, isopropyl (S)-1-((4-(3-chloro-4-(2-chloro-3-(6-methoxy-5-((((5-oxopyrrolidin-2-yl)methyl)amino)methyl)pyridin-2-yl)phenyl)pyridin-2-yl)-2-methoxybenzyl)amino)cyclopropane-1-carboxylate] | 31.2 | ≥ 10000
7 | COc1nc(-c2cccc(-c3nccc(-c4ccc(CNC[C@@H]5CCC(=O)N5)c(OC)n4)c3Cl)c2Cl)ccc1CNC[C@@H]1CCC(=O)N1 [Compound 575, (S)-5-((((3′-Chloro-2′-(2-chloro-3-(6-methoxy-5-(((((S)-5-oxopyrrolidin-2-yl)methyl)amino)methyl)pyridin-2-yl)phenyl)-6-methoxy-[2,4′-bipyridin]-5-yl)methyl)amino)methyl)pyrrolidin-2-one] | 0.11 | 14.1
8 | COc1cc(-c2nccc(-c3cccc(NC(=O)c4ccc(CNC[C@@H]5CCC(=O)N5)cn4)c3C)c2Cl)cc(F)c1CNC[C@@H]1CCC(=O)N1 [Example 726, N-(3-(3-Chloro-2-(3-fluoro-5-methoxy-4-(((((S)-5-oxopyrrolidin-2-yl)methyl)amino)methyl)phenyl)pyridin-4-yl)-2-methylphenyl)-5-(((((S)-5-oxopyrrolidin-2-yl)methyl)amino)methyl)picolinamide] | 0.42 | 48.7
9 | COc1cc(-c2cccc(-c3ccnc(-c4cnc(CN5CC6(CNC(=O)C6)C5)c(OC)c4)c3Cl)c2Cl)ccc1CN1CC2(CNC(=O)C2)C1 [Compound 501, 2-((3-Chloro-4-(2-chloro-3′-methoxy-4′-((7-oxo-2,6-diazaspiro[3.4]octan-2-yl)methyl)-[1,1′-biphenyl]-3-yl)-5′-methoxy-[2,3′-bipyridin]-6′-yl)methyl)-2,6-diazaspiro[3.4]octan-7-one] | 0.92 | 94.1
10 | COc1cc(-c2nccc(-c3cccc(-c4ccc(CNC5CN(C(C)=O)C5)c(OC)n4)c3Cl)c2Cl)ccc1CNC1CN(C(C)=O)C1 [Example 300, 1-(3-(((6-(3-(2-(4-(((1-Acetylazetidin-3-yl)amino)methyl)-3-methoxyphenyl)-3-chloropyridin-4-yl)-2-chlorophenyl)-2-methoxypyridin-3-yl)methyl)amino)azetidin-1-yl)ethan-1-one] | 0.87 | 282
11 | COc1cc(-c2ncnc(-c3cccc(-c4ccc(CN5CC6(C5)CN(C(C)=O)C6)c(OC)n4)c3Cl)c2C)ccc1CN1CC2(C1)CN(C(C)=O)C2 [Example 538, 1-(6-((6-(3-(6-(4-((6-Acetyl-2,6-diazaspiro[3.3]heptan-2-yl)methyl)-3-methoxyphenyl)-5-methylpyrimidin-4-yl)-2-chlorophenyl)-2-methoxypyridin-3-yl)methyl)-2,6-diazaspiro[3.3]heptan-2-yl)ethan-1-one] | 2.59 | ≥ 10000
12 | COc1nc(-c2cccc(-c3ccnc(-c4ccc5c(CNC6CCS(=O)(=O)CC6)cn(C)c5c4)c3Cl)c2Cl)ccc1CNC[C@@H]1CCC(=O)N1 [Compound 43, (S)-5-((((6-(2-chloro-3-(3-chloro-2-(3-(((1,1-dioxidotetrahydro-2H-thiopyran-4-yl)amino)methyl)-1-methyl-1H-indol-6-yl)pyridin-4-yl)phenyl)-2-methoxypyridin-3-yl)methyl)amino)methyl)pyrrolidin-2-one] | 0.2 | 62.5
13 | COc1nc(-c2cccc(-c3nccc(-c4ccc(CN5CC6(CNC(=O)C6)C5)c(OC)n4)c3Cl)c2Cl)ccc1CN1CC2(CNC(=O)C2)C1 [Compound 573, 2-((3′-Chloro-2′-(2-chloro-3-(6-methoxy-5-((7-oxo-2,6-diazaspiro[3.4]octan-2-yl)methyl)pyridin-2-yl)phenyl)-6-methoxy-[2,4′-bipyridin]-5-yl)methyl)-2,6-diazaspiro[3.4]octan-7-one] | 0.17 | 14.4
14 | COCC(=O)N1CC2(CN(Cc3ccc(-c4cccc(-c5ccnc(-c6ccc(CN7CC8(CNC(=O)C8)C7)c(OC)c6)c5Cl)c4Cl)nc3OC)C2)C1 [Example 687, 2-(4-(3-Chloro-4-(2-chloro-3-(6-methoxy-5-((6-(2-methoxyacetyl)-2,6-diazaspiro[3.3]heptan-2-yl)methyl)pyridin-2-yl)phenyl)pyridin-2-yl)-2-methoxybenzyl)-2,6-diazaspiro[3.4]octan-7-one] | 0.08 | 26.3
15 | COc1nc(-c2cccc(-c3cncc(-c4ccc(CNC5CCN(C(C)=O)CC5)c(OC)n4)c3Cl)c2Cl)ccc1CNC1CCN(C(C)=O)CC1 [Compound 639, 1-(4-(((6-(3-(5-(((1-acetylpiperidin-4-yl)amino)methyl)-4′-chloro-6-methoxy-[2,3′-bipyridin]-5′-yl)-2-chlorophenyl)-2-methoxypyridin-3-yl)methyl)amino)piperidin-1-yl)ethan-1-one] | 0.19 | 23
16 | COc1nc(-c2cccc(-c3ccnc(-c4cc5c(=O)n(C)c(CN6CC(C)(O)C6)nn5c4)c3Cl)c2Cl)ccc1CN1CC(C)(O)C1 [Example 231, 6-(3-Chloro-4-(2-chloro-3-(5-((3-hydroxy-3-methylazetidin-1-yl)methyl)-6-methoxypyridin-2-yl)phenyl)pyridin-2-yl)-2-((3-hydroxy-3-methylazetidin-1-yl)methyl)-3-methylpyrrolo[2,1-f][1,2,4]triazin-4(3H)-one] | 3.53 | 105
17 | COc1cc(-c2ncnc(-c3cccc(-c4ccc(CNCc5cnco5)c(OC)n4)c3Cl)c2Cl)ccc1CNCc1cnco1 [Example 643, 1-(6-(2-Chloro-3-(5-chloro-6-(3-methoxy-4-(((oxazol-5-ylmethyl)amino)methyl)phenyl)pyrimidin-4-yl)phenyl)-2-methoxypyridin-3-yl)-N-(oxazol-5-ylmethyl)methanamine] | 4.17 | 1530
18 | COc1cc(-c2nccc(-c3cccc(-c4ccc(CNC5CCOCC5)c(OC)n4)c3Cl)c2Cl)ccc1CNC1CCOCC1 [Example 298, N-((6-(2-chloro-3-(3-chloro-2-(3-methoxy-4-(((tetrahydro-2H-pyran-4-yl)amino)methyl)phenyl)pyridin-4-yl)phenyl)-2-methoxypyridin-3-yl)methyl)tetrahydro-2H-pyran-4-amine] | 1.78 | 14.6
19 | COc1cc(-c2nccc(-c3cccc(-c4ccc(CNC5CCOCC5)c(OC)n4)c3Cl)c2Cl)ccc1CN(C)C1CCN(C(C)=O)CC1 [Example 442, 1-(4-((4-(3-chloro-4-(2-chloro-3-(6-methoxy-5-(((tetrahydro-2H-pyran-4-yl)amino)methyl)pyridin-2-yl)phenyl)pyridin-2-yl)-2-methoxybenzyl)(methyl)amino)piperidin-1-yl)ethan-1-one] | 5.94 | 43.3
20 | CNCc1ccc(-c2cccc(-c3ccnc(-c4ccc(CN5CC6(CC(C(=O)O)C6)C5)c(OC)c4)c3Cl)c2Cl)nc1OC [Compound 227, 2-(4-(3-chloro-4-(2-chloro-3-(6-methoxy-5-((methylamino)methyl)pyridin-2-yl)phenyl)pyridin-2-yl)-2-methoxybenzyl)-2-azaspiro[3.3]heptane-6-carboxylic acid] | 5.25 | 31.3
21 | COc1cc(-c2nccc(-c3cccc(-c4ccc(CNCCNC(C)=O)c(OC)n4)c3Cl)c2Cl)ccc1CNCCNC(C)=O | 1.39 | 70.2
